From patent US9206184B2, “Disubstituted benzothienyl-pyrrolotriazines and uses thereof” (BAYER INTELLECTUAL PROPERTY GmbH, priority 2011, dated 2015) come the findings set out here.

Assay [1] has as its target human FGFR-3 (Homo sapiens (Human), UniProt P22607). The experiment in a line: FGFR-3 kinase assay (TR-FRET). It counts as biochemical. To be noted: 10 μM ATP, 15 min pre-incubation with enzyme, compounds of the invention. (TR-FRET usually uses a lanthanide donor and a delayed reading to cut background.)
Assay [2] has as its target human FGFR-1 (Homo sapiens, UniProt P11362). The experiment in a line: FGFR-1 high ATP kinase assay (TR-FRET). As to conditions: 2 mM ATP, 15 min pre-incubation with enzyme, compounds of the invention. Type of assay: biochemical.

Counter-ions that a name gives are not always drawn.

As a reminder, the IC50 is the point on the concentration scale where inhibition reaches its midpoint. Read a high IC50 as a need for much substance.

human FGFR-1, sequence (P11362 22-822 limits assumed): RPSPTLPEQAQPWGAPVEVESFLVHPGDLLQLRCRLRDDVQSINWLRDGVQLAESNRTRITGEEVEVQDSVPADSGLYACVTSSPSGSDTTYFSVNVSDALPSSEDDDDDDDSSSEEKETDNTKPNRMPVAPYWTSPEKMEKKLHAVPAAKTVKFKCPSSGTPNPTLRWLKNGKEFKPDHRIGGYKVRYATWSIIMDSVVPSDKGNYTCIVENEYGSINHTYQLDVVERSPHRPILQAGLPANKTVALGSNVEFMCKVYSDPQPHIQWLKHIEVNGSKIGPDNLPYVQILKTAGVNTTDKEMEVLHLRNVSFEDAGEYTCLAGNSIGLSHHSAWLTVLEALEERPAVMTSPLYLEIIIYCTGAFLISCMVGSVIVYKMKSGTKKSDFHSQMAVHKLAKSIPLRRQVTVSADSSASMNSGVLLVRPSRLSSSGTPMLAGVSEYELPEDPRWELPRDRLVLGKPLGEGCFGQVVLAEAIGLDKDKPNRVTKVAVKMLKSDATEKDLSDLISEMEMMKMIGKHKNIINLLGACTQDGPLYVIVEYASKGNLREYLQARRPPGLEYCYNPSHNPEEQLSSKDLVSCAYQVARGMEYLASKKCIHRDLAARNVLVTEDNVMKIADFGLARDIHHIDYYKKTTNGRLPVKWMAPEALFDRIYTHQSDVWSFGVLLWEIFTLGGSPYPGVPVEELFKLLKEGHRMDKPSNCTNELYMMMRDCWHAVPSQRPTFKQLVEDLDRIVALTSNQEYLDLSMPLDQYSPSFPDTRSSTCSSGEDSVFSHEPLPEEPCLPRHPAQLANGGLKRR
human FGFR-3, sequence (P22607 397-806): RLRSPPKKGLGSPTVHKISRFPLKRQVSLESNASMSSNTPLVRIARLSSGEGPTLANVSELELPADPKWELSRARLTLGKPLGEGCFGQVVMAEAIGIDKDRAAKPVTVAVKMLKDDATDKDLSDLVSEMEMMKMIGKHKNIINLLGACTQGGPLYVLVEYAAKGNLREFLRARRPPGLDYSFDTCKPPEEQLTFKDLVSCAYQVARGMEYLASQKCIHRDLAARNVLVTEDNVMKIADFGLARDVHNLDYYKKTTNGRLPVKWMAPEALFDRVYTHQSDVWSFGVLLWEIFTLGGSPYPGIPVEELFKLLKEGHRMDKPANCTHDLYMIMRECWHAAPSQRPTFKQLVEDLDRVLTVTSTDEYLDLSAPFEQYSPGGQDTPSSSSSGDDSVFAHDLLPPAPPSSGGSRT

`COCc1c(-c2cc3cc(C)cc(OC)c3s2)c2c(N)ncnn2c1CN[C@@H]1CCNC1=O` [Example 3, (3R)-3-({[4-Amino-6-(methoxymethyl)-5-(7-methoxy-5-methyl-1-benzothiophen-2-yl)pyrrolo-[2,1-f][1,2,4]triazin-7-yl]methyl}amino)pyrrolidin-2-one dihydrochloride] yielded an IC50 in assay [1] (dihydrochloride) of 46.6 nM. In other words, the double-digit nanomolar range.
As for `COCc1c(-c2cc3cc(C)cc(OC)c3s2)c2c(N)ncnn2c1CN[C@@H]1CCNC1=O` [Example 4, (3R)-3-({[4-Amino-6-(methoxymethyl)-5-(7-methoxy-5-methyl-1-benzothiophen-2-yl)pyrrolo-[2,1-f][1,2,4]triazin-7-yl]methyl}amino)pyrrolidin-2-one], half-maximal inhibition in assay [1] (IC50) was put at 24.8 nM.
Still for that read-out and setting: in the case of `CCOCc1c(-c2cc3cc(C)cc(OC)c3s2)c2c(N)ncnn2c1CN1CCNC(=O)C1` [Example 5, 4-{[4-Amino-6-(ethoxymethyl)-5-(7-methoxy-5-methyl-1-benzothiophen-2-yl)pyrrolo[2,1-f]-[1,2,4]triazin-7-yl]methyl}piperazin-2-one] it was 12.1 nM.
`CCOCc1c(-c2cc3cc(C)cc(OC)c3s2)c2c(N)ncnn2c1CN1CCNC(=O)C1` [Example 6, 4-{[4-Amino-6-(ethoxymethyl)-5-(7-methoxy-5-methyl-1-benzothiophen-2-yl)pyrrolo-[2,1-f][1,2,4]triazin-7-yl]methyl}piperazin-2-one dihydrochloride]: in assay [1] (dihydrochloride), the concentration for half-maximal inhibition (IC50) came to 28.5 nM.
In turn, `CCOCc1c(-c2cc3cc(C)cc(OC)c3s2)c2c(N)ncnn2c1CN[C@@H]1CCNC1=O` [Example 7, (3R)-3-({[4-Amino-6-(ethoxymethyl)-5-(7-methoxy-5-methyl-1-benzothiophen-2-yl)pyrrolo-[2,1-f][1,2,4]triazin-7-yl]methyl}amino)pyrrolidin-2-one dihydrochloride] showed a half-maximal inhibitory concentration (IC50) in assay [2] (dihydrochloride) of 4.2 nM. This lies in the single-digit nanomolar range.
`CCOCc1c(-c2cc3cc(C)cc(OC)c3s2)c2c(N)ncnn2c1CN[C@@H]1CCNC1=O` [Example 8, (3R)-3-({[4-Amino-6-(ethoxymethyl)-5-(7-methoxy-5-methyl-1-benzothiophen-2-yl)pyrrolo-[2,1-f][1,2,4]triazin-7-yl]methyl}amino)pyrrolidin-2-one] gave a half-maximal inhibitory concentration (IC50) in assay [2] of 9.4 nM.
Still for that read-out and setting: with `CCOCc1c(-c2cc3cc(C)cc(OC)c3s2)c2c(N)ncnn2c1CN1CCOCC1` [Example 10, 6-(Ethoxymethyl)-5-(7-methoxy-5-methyl-1-benzothiophen-2-yl)-7-(morpholin-4-ylmethyl)pyrrolo[2,1-f][1,2,4]triazin-4-amine] the figure was 12.7 nM; with `COc1cc(C)cc2cc(-c3c(CO)c(CN4CCNCC4)n4ncnc(N)c34)sc12` [Example 12, [4-Amino-5-(7-methoxy-5-methyl-1-benzothiophen-2-yl)-7-(piperazin-1-ylmethyl)pyrrolo[2,1-f]-[1,2,4]triazin-6-yl]methanol bis(formiate)], 3.3 nM.
Molecule `COCc1c(-c2cc3cc(C)cc(OC)c3s2)c2c(N)ncnn2c1CN1CCNCC1` [Example 17, 6-(Methoxymethyl)-5-(7-methoxy-5-methyl-1-benzothiophen-2-yl)-7-(piperazin-1-ylmethyl)pyrrolo[2,1-f][1,2,4]triazin-4-amine formiate] came in with a half-inhibitory concentration (IC50) in assay [2] of 0.9 nM.
Same read-out and setting: with `CCCCOCc1c(-c2cc3cc(C)cc(OC)c3s2)c2c(N)ncnn2c1CN1CCNCC1` [Example 23, 6-(Butoxymethyl)-5-(7-methoxy-5-methyl-1-benzothiophen-2-yl)-7-(piperazin-1-ylmethyl)pyrrolo-[2,1-f][1,2,4]triazin-4-amine formiate] the figure was 17.9 nM; with `CCCOCc1c(-c2cc3cc(C)cc(OC)c3s2)c2c(N)ncnn2c1CN1CCNCC1` [Example 24, 5-(7-Methoxy-5-methyl-1-benzothiophen-2-yl)-7-(piperazin-1-ylmethyl)-6-(propoxymethyl)pyrrolo[2,1-f][1,2,4]triazin-4-amine bis(formiate)], 1.3 nM.
Regarding `COc1cc(C)cc2cc(-c3c(COC(C)C)c(CN4CCNCC4)n4ncnc(N)c34)sc12` [Example 27, 6-(Isopropoxymethyl)-5-(7-methoxy-5-methyl-1-benzothiophen-2-yl)-7-(piperazin-1-ylmethyl)pyrrolo[2,1-f][1,2,4]triazin-4-amine formiate], in assay [2], it took 1.3 nM to reach half-maximal inhibition (IC50). That is a single-digit nanomolar value.
In the case of `COC(=O)COCc1c(-c2cc3cc(C)cc(OC)c3s2)c2c(N)ncnn2c1CN1CCNCC1` [Example 31, Methyl{[4-amino-5-(7-methoxy-5-methyl-1-benzothiophen-2-yl)-7-(piperazin-1-ylmethyl)pyrrolo[2,1-f][1,2,4]triazin-6-yl]methoxy}acetate], the IC50 in assay [2] came to 1.5 nM.
The same measure, in the same setting: with `CNCc1c(-c2cc3cc(C)cc(OC)c3s2)c2c(N)ncnn2c1CN1CCNCC1` [Example 36, 5-(7-Methoxy-5-methyl-1-benzothiophen-2-yl)-6-[(methylamino)methyl]-7-(piperazin-1-ylmethyl)pyrrolo[2,1-f][1,2,4]triazin-4-amine trihydrochloride] the figure was 3 nM; with `CCN(CC)Cc1c(-c2cc3cc(C)cc(OC)c3s2)c2c(N)ncnn2c1CN1CCNCC1` [Example 43, 6-[(Diethylamino)methyl]-5-(7-methoxy-5-methyl-1-benzothiophen-2-yl)-7-(piperazin-1-ylmethyl)pyrrolo[2,1-f][1,2,4]triazin-4-amine trihydrochloride], 8.6 nM.
Still for that read-out and setting: in the case of `COc1cc(C)cc2cc(-c3c(-c4cnco4)c(CN4CCNCC4)n4ncnc(N)c34)sc12` [Example 61, 5-(7-Methoxy-5-methyl-1-benzothiophen-2-yl)-6-(1,3-oxazol-5-yl)-7-(piperazin-1-ylmethyl)pyrrolo[2,1-f][1,2,4]triazin-4-amine trihydrochloride] it was 0.5 nM; in that of `CCOCc1c(-c2cc3cc(C)cc(OC)c3s2)c2c(N)ncnn2c1CN1CCNC1=O` [Example 87, 1-{[4-Amino-6-(ethoxymethyl)-5-(7-methoxy-5-methyl-1-benzothiophen-2-yl)pyrrolo[2,1-f]-[1,2,4]triazin-7-yl]methyl}imidazolidin-2-one], 14.1 nM; in that of `COCc1c(-c2cc3cccc(OC)c3s2)c2c(N)ncnn2c1CN1CCNC(=O)C1` [Example 88, 4-{[4-Amino-5-(7-methoxy-1-benzothiophen-2-yl)-6-(methoxymethyl)pyrrolo[2,1-f][1,2,4]triazin-7-yl]methyl}piperazin-2-one], 79.6 nM.
On the same count and under the same terms, in the case of `CCOCc1c(-c2cc3cc(C)cc(OC)c3s2)c2c(N)ncnn2c1CN[C@H]1CCNC1=O` [Example 93, (3S)-3-({[4-Amino-6-(ethoxymethyl)-5-(7-methoxy-5-methyl-1-benzothiophen-2-yl)pyrrolo[2,1-f]-[1,2,4]triazin-7-yl]methyl}amino)pyrrolidin-2-one] it was 5.5 nM; in that of `CCOCc1c(-c2cc3cc(C)cc(OC)c3s2)c2c(N)ncnn2c1CN1CCCCO1` [Example 94], 81.9 nM.
In turn, `CCOCc1c(-c2cc3cc(C)cc(OC)c3s2)c2c(N)ncnn2c1CN1CCCC1` [Example 96] yielded an IC50 in assay [2] of 54.5 nM.
The same measure, in the same setting: in the case of `CCOCc1c(-c2cc3cc(C)cc(OC)c3s2)c2c(N)ncnn2c1CN1CC(O)C1` [Example 97] it was 16.4 nM; in that of `CCOCc1c(-c2cc3cc(C)cc(OC)c3s2)c2c(N)ncnn2c1CN1CCN(C2CC2)CC1` [Example 100], 54.5 nM; in that of `CCOCc1c(-c2cc3cc(C)cc(OC)c3s2)c2c(N)ncnn2c1CN1CCC(O)C1` (centres unmarked) [Example 101], 30.8 nM.
Still for that read-out and setting: in the case of `CCOCc1c(-c2cc3cc(C)cc(OC)c3s2)c2c(N)ncnn2c1CN1CNC(=O)C1` [Example 104] it was 5.6 nM.
The same measure, in the same setting: in the case of `CCOCc1c(-c2cc3cc(C)cc(OC)c3s2)c2c(N)ncnn2c1CN1CCNC(=O)C1C` (centres unmarked) [Example 105] it was 8.7 nM; in that of `CCOCc1c(-c2cc3cc(C)cc(OC)c3s2)c2c(N)ncnn2c1C(N)=O` [Example 109], 8.4 nM.
As for `CCOCc1c(-c2cc3cc(C)cc(OC)c3s2)c2c(N)ncnn2c1C(=O)NC` [Example 110], it took 17.5 nM to reach half-maximal inhibition in assay [2] (IC50).
On the same count and under the same terms, with `CCNC(=O)c1c(COCC)c(-c2cc3cc(C)cc(OC)c3s2)c2c(N)ncnn12` [Example 111] the figure was 27 nM; with `CCOCc1c(-c2cc3cc(C)cc(OC)c3s2)c2c(N)ncnn2c1C(=O)N1CCCCO1` [Example 112], 42.1 nM.
`CCOCc1c(-c2cc3cc(C)cc(OC)c3s2)c2c(N)ncnn2c1C(=O)N1CCC(C(N)=O)CC1` [Example 113]: the IC50 in assay [2] was found to be 52.7 nM.
Still for that read-out and setting: in the case of `CCOCc1c(-c2cc3cc(C)cc(OC)c3s2)c2c(N)ncnn2c1C(=O)NC1CC1` [Example 115] it was 24.9 nM.
On the same count and under the same terms, in the case of `CCOCc1c(-c2cc3cc(C)cc(OC)c3s2)c2c(N)ncnn2c1C(=O)N[C@H]1CCNC1=O` [Example 116] it was 3.7 nM; in that of `CCOCc1c(-c2cc3cc(C)cc(OC)c3s2)c2c(N)ncnn2c1C(=O)N1CCC(O)C1` (centres unmarked) [Example 118], 6.8 nM; in that of `CCOCc1c(-c2cc3cc(C)cc(OC)c3s2)c2c(N)ncnn2c1C(=O)N1CC(F)(F)C1` [Example 122], 18.9 nM.
Same read-out and setting: in the case of `CCOCc1c(-c2cc3cc(C)cc(OC)c3s2)c2c(N)ncnn2c1C(=O)N1CCS(=O)(=O)CC1` [Example 123] it was 25.1 nM; in that of `COCc1c(-c2cc3cc(OC)cc(OC)c3s2)c2c(N)ncnn2c1CN1CCNC(=O)C1` [Example 124, 4-{[4-Amino-5-(5,7-dimethoxy-1-benzothiophen-2-yl)-6-(methoxymethyl)pyrrolo[2,1-f][1,2,4]-triazin-7-yl]methyl}piperazin-2-one], 27.3 nM.
The molecule `COc1cc(C)cc2cc(-c3c(CN4CCNC(=O)C4)c(CO)n4ncnc(N)c34)sc12` [Example 125, 4-{[4-Amino-7-(hydroxymethyl)-5-(7-methoxy-5-methyl-1-benzothiophen-2-yl)pyrrolo[2,1-f]-[1,2,4]triazin-6-yl]methyl}piperazin-2-one] returned an IC50 in assay [2] of 5 nM.
